In patent publication US20160318933A1, “FUSED PYRAZOLE DERIVATIVE” (SUMITOMO DAINIPPON PHARMA CO., LTD., priority 2013, published 2016) one finds EC50 and Emax data, which are given here for 51 compounds.

The experiment has as its target T1, human brain-derived dopamine D4 receptor (Homo sapiens, UniProt P21917).
T1 construct: expressed in transfected cells; host or cells: CHO (CHO-K1) or HEK293 cells
T1 sequence (P21917 1-419): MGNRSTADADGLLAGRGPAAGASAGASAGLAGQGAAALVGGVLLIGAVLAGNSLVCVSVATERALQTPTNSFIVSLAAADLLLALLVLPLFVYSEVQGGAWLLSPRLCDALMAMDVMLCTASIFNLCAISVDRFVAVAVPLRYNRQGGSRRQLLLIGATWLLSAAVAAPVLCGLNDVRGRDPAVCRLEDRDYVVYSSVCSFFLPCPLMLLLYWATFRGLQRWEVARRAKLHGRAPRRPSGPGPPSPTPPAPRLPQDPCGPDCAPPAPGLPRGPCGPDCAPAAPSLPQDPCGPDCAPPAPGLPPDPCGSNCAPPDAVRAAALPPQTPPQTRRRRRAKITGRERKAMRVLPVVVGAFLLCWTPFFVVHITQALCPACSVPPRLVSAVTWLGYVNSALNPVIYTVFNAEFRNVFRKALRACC
Kind of experiment: Agonistic activity in G protein dependent pathway of dopamine D4 receptor (aequorin intracellular calcium luminescence, FDSS). The note with it: for EC50: concentration required to achieve a 50% response of Emax, CHO-K1 or HEK293 cells transfected with D4 receptor; for Emax: read-out: Maximal activity on D4 receptor (%). In kind it is cell-based. From the text: The G protein dependent pathway is a pathway for transmitting signals in cells via a second messenger by stimulating a G protein through the binding of guanosine triphosphate (GTP) to the G protein. When GPCRs are activated by the binding of a ligand, a G protein binds to the GPCRs, and thereby GTP binds to a Gα subunit that is one of G protein subunits and a Gγβ subunit is dissociated. The activated Gα subunit regulates intracellular cAMP levels by the activation or inhibition of an adenylate cyclase, and regulates intracellular calcium levels by the activation of phospholipase C to transmit signals in cells.
The agonistic activities of the present compounds in the G protein dependent pathway were evaluated on the basis of intracellular calcium levels as follows. CHO-K1 or HEK293 cell lines transfected with D4 receptor genes were seeded in a 384-well plate, and incubated in a CO2 incubator at 37° C. for 24 hours, and then a solution of the present compound in DMSO was added into cells preloaded with coelenterazine to measure the change in luminescent signals with a FDSS (Hamamatsu Photonics K.K.). […] The agonistic activity of the present compound was calculated according to the measured luminescent signals, as the maximal activity (Emax) of the present compound. EC50 value was calculated as the concentration of the present compound required to achieve a 50% response of Emax.

Broadly, the EC50 is the concentration at which the effect is half-maximal. As for `Cc1cccnc1-c1cc2n(n1)CCN(Cc1ccc(C(F)(F)F)nc1N)C2` [Example 105], the EC50 was found to be 69 nM and the Emax turned out to be 79%.

Regarding `Cc1ccc(CN2CCn3nc(-c4ncccc4C)c(Cl)c3C2)nc1` [Example 106, 3-Chloro-2-(3-methylpyridin-2-yl)-5-[(5-methylpyridin-2-yl)methyl]-4,5,6,7-tetrahydropyrazolo[1,5-a]pyrazine], the EC50 turned out to be 66 nM and the Emax came out at 94%.

With `Cc1ccc(CN2CCn3nc(-c4ncccc4C)cc3C2)nc1` [Example 107], the EC50 is 13 nM and the Emax is 61%.

For `Cc1c(-c2ccccn2)nn2c1CN(Cc1ccc(C(F)(F)F)cn1)CC2` [Example 108], the EC50 amounted to 1 nM and the Emax worked out at 66%.

In the case of `Cc1ccc(CN2CCn3nc(-c4ncccc4F)cc3C2)nc1` [Example 109], the EC50 turned out to be 36 nM and the Emax worked out at 68%.

With `Cc1ccc(CN2CCn3nc(-c4ccccn4)c(C)c3C2)nc1` [Example 110], the EC50 turned out to be 18 nM and the Emax amounted to 99%.

As to `Cc1ccncc1CN1CCn2nc(-c3ncccc3C)cc2C1` [Example 111], the EC50 was 159 nM and the Emax turned out to be 22%.

On to `Cc1cccnc1-c1cc2n(n1)CCN(Cc1ccc3c(n1)CCCC3)C2` [Example 112], for which the EC50 amounted to 41 nM and the Emax came to 66%.

Consider `Cc1ccc(CN2CCn3nc(-c4ncccc4C)c(C)c3C2)nc1` [Example 114], for which the EC50 was determined as 64 nM and the Emax was found to be 93%.

Regarding `Cc1cccc(CN2CCn3nc(-c4ncccc4C)c(C)c3C2)n1` [Example 115], the EC50 amounted to 57 nM and the Emax was determined as 105%.

On to `Cc1cccnc1-c1nn2c(c1C)CN(Cc1ccc(C(F)(F)F)nc1)CC2` [Example 117], for which the EC50 came to 241 nM and the Emax was 51%.

Take `Cc1cccnc1-c1nn2c(c1C)CN(Cc1ccc(C(F)(F)F)cn1)CC2` [Example 118]: the EC50 worked out at 106 nM and the Emax turned out to be 59%.

As for `Cc1cnc(CN2CCn3nc(-c4ncccc4C)c(C)c3C2)cn1` [Example 119], the half-maximal effective concentration (EC50) stood at 145 nM and the Emax stood at 71%.

As to `Cc1ccc(CN2CCn3nc(-c4ncccc4F)c(C)c3C2)nc1` [Example 120], the EC50 came out at 23 nM and the Emax came out at 98%.

For `Cc1ccc(CN2CCn3nc(-c4ncccc4F)c(C)c3C2)cn1` [Example 121], the EC50 was found to be 46 nM and the Emax worked out at 84%.

As to `Cc1cccnc1-c1cc2n(n1)CCN(Cc1ccc(CF)nc1)C2` [Example 122], the EC50 was 50 nM and the Emax came to 47%.

`Cc1cccnc1-c1cc2n(n1)CCN(Cc1ccc(CF)cn1)C2` [Example 123]: the EC50 came to 32 nM and the Emax turned out to be 65%.

As for `Cc1c(-c2ncccc2F)nn2c1CN(Cc1ccc3c(n1)CCCC3)CC2` [Example 124], the EC50 was determined as 47 nM and the Emax is 76%.

As for `Cc1c(-c2ncccc2F)nn2c1CN(Cc1ccc3c(n1)CCC3)CC2` [Example 125], the EC50 came out at 13 nM and the Emax was determined as 98%.

Take `Cc1cccc(CN2CCn3nc(-c4ncccc4F)c(C)c3C2)n1` [Example 126]: the half-maximal effective concentration (EC50) is 11 nM and the Emax came out at 91%.

Consider `Cc1c(-c2ncccc2F)nn2c1CN(Cc1ccc(C(F)(F)F)nc1)CC2` [Example 127], for which the EC50 amounted to 56 nM and the Emax was determined as 89%.

As for `Fc1cccnc1-c1cc2n(n1)CCN(Cc1ccc3c(n1)CCCC3)C2` [Example 130], the EC50 came to 20 nM and the Emax amounted to 71%.

In the case of `Cc1ccc(CN2CCn3nc(-c4ncccc4C)cc3C2)nc1C` [Example 131], the 50% effective concentration (EC50) came out at 22 nM and the Emax was 66%.

With `Cc1cccnc1-c1cc2n(n1)CCN(Cc1ccc(C(F)F)cn1)C2` [Example 133], the EC50 was 5 nM and the Emax amounted to 47%.

Regarding `Cc1c(-c2ccccn2)nn2c1CN(Cc1ccc(CF)nc1)CC2` [Example 134], the EC50 was determined as 42 nM and the Emax is 62%.

In the case of `Cc1cccnc1-c1cc2n(n1)CCN(Cc1ccc(F)c(C)n1)C2` [Example 135], the EC50 came to 49 nM and the Emax is 54%.

As for `Cc1cccnc1-c1cc2n(n1)CCN(Cc1cc3c(cn1)OCCC3)C2` [Example 136], the 50% effective concentration (EC50) is 63 nM and the Emax was 52%.

On to `Cc1cccnc1-c1cc2n(n1)CCN(Cc1cccc(CF)n1)C2` [Example 137], for which the EC50 was 10 nM and the Emax amounted to 82%.

For `Cc1cccnc1-c1cc2n(n1)CCN(Cc1ccc(C(F)F)nc1)C2` [Example 138], the EC50 came out at 50 nM and the Emax is 49%.

`Cc1nc(CN2CCn3nc(-c4ncccc4C)cc3C2)cs1` [Example 139]: the EC50 is 0.6 nM and the Emax worked out at 56%.

As for `FC(F)(F)c1cccnc1-c1cc2n(n1)CCN(Cc1ccccc1)C2` [Example 140, 5-Benzyl-2-[3-(trifluoromethyl)pyridin-2-yl]-4,5,6,7-tetrahydropyrazolo[1,5-a]pyrazine], the EC50 is 86 nM and the Emax is 85%.

Consider `Cc1ncc(CN2CCn3nc(-c4ccccn4)c(F)c3C2)c(N)n1` [Example 141], for which the concentration giving a half-maximal response (EC50) is 87 nM and the Emax is 56%.

In the case of `Cc1ncc(CN2CCn3nc(-c4ccccn4)c(C)c3C2)c(N)n1` [Example 142], the EC50 is 68 nM and the Emax worked out at 82%.

In the case of `Cc1cccnc1-c1cc2n(n1)CCN(Cc1ccc(C(F)(F)F)nc1)C2` [Example 143, 2-(3-Methylpyridin-2-yl)-5-{[6-(trifluoromethyl)pyridin-3-yl]methyl}-4,5,6,7-tetrahydropyrazolo[1,5-a]pyrazine], the EC50 turned out to be 80 nM and the Emax stood at 48%.

`Cc1cccnc1-c1cc2n(n1)CCN(Cc1cc3ccccc3[nH]1)C2` [Example 145]: the EC50 came out at 45 nM and the Emax is 52%.

In the case of `Cc1cccnc1-c1cc2n(n1)CCN(Cc1cc3ccccc3n1C)C2` [Example 146], the 50% effective concentration (EC50) is 90 nM and the Emax worked out at 48%.

`Cc1cccnc1-c1cc2n(n1)CCN(Cc1c[nH]c3ccccc13)C2` [Example 147]: the EC50 was 33 nM and the Emax was determined as 59%.

With `Cc1cccnc1-c1cc2n(n1)CCN(Cc1cn(C)c3ccccc13)C2` [Example 148], the EC50 is 47 nM and the Emax came to 71%.

For the compound `Cc1cccnc1-c1cc2n(n1)CCN(Cc1c3ccccc3nn1C)C2` [Example 149], the EC50 was determined as 107 nM and the Emax was 53%.

Turning to `Cn1c(CN2CCn3nc(-c4ncccc4F)cc3C2)cc2ccccc21` [Example 150], the EC50 was found to be 38 nM and the Emax was determined as 71%.

With `Nc1ncc(CN2CCn3nc(-c4ncccc4F)cc3C2)cn1` [Example 151], the EC50 was determined as 103 nM and the Emax was 69%.

As for `Cc1cccc(CN2CCn3nc(-c4ncccc4C(F)(F)F)cc3C2)n1` [Example 152], the EC50 turned out to be 107 nM and the Emax was 74%.

Regarding `Cn1nc(CN2CCn3nc(-c4ncccc4C(F)(F)F)cc3C2)c2ccccc21` [Example 153], the EC50 was 94 nM and the Emax was 57%.

Regarding `Cc1cnc(CN2CCn3nc(-c4ncccc4C)cc3C2)cn1` [Example 154], the EC50 turned out to be 101 nM and the Emax came to 57%.

In the case of `Cc1cccc(CN2CCn3nc(-c4ncccc4C)cc3C2)n1` [Example 156], the EC50 is 55 nM and the Emax was determined as 70%.

Take `Cc1cccnc1-c1cc2n(n1)CCN(Cc1ccc(CO)cn1)C2` [Example 157]: the EC50 turned out to be 127 nM and the Emax is 50%.

Turning to `Cc1cccnc1-c1cc2n(n1)CCN(Cc1nn(C)c3ccccc13)C2` [Example 158], the EC50 amounted to 65 nM and the Emax turned out to be 74%.

In the case of `Cc1cnc(CN2CCn3nc(-c4ncccc4F)cc3C2)cn1` [Example 159], the half-maximal effective concentration (EC50) came out at 92 nM and the Emax was determined as 64%.

In the case of `Fc1ccc(CN2CCn3nc(-c4ncccc4F)cc3C2)nc1` [Example 160], the EC50 was found to be 111 nM and the Emax stood at 53%.

`Cc1cccc(CN2CCn3nc(-c4ncccc4F)cc3C2)n1` [Example 161]: the concentration giving a half-maximal response (EC50) was 26 nM and the Emax amounted to 74%.

On to `Fc1cccnc1-c1cc2n(n1)CCN(Cc1ccc(C(F)(F)F)nc1)C2` [Example 162], for which the EC50 is 59 nM and the Emax is 62%.
